Experiments:
[1] = target: HSV-1 thymidine kinase mutant TKF 105 (Leu-170 to Ile) (Human herpesvirus 1, UniProt P06478, L170I); assay: Kinetics of AZT phosphorylation by purified TK (preliminary experiments); format: biochemical, Herpes Simplex Virus Type 1; details: preliminary experiments with purified TKF 105 TK
Method: Briefly, crude bacterial extract was passed three times through a 7-mL bed-volume affinity column. The column was then washed sequentially using 30 mL each of buffer A [0.1 M Tris HCl, pH 7.5/5 mM dithiothreitol (DTT)/10% glycerol], buffer B (0.1M Tris-HCl, pH 7.5/0.5 M KCl/5 mM DTT/10% glycerol), and buffer A. TK was eluted using a 60-mL linear gradient of 0-600 µM dT in buffer C (0.3 M Tris HCl, pH 7.4/50 mM KCl/10% glycerol). Active fractions were pooled and dialyzed against three changes each of 2 liters of 50 mM Tris-HCl, pH 7.4/5 mM DTT/10% glycerol. Except in the final dialysis, all the above buffers contained 50 µg/mL of aprotinin and 2 µg/mL each of pepstatin and leupeptin.
Secondly, the kinetics of AZT phosphorylation by the two mutants was determined. Briefly, reactions were carried out in a final volume of 100 µl containing 50 mM Tris-HCl (pH 7.5), 5 mM ATP. […] The amount of radioactivity adsorbed to the disc was determined by scintillation spectroscopy. Km and Vmax values were determined by using the Cleland SUBIN program (Cleland, Methods Enz. 63:103-138, 1979). The values for kcat were calculated using the equation Vmax = kcat[E]0, where [E]o = total enzyme concentration. […]

[2] = system: E. coli KY895 harboring HSV-1 TK mutant TKI 208 (Leu-170 to Val); assay: Negative selection on AZT-selection medium; format: cell-based; details: 0.05 µg/mL of AZT, 1.0 µg/mL of dT
Description: This screen is based upon the premise that mutants with increased ability to phosphorylate AZT relative to dT would be unable to form colonies on the AZT-selection medium. In particular, the product, AZT monophosphate would be further phosphorylated by the host cell's nonspecific nucleotide kinases, or possibly by the mutant TK, incorporated into bacterial DNA by host DNA polymerases, terminate DNA synthesis, and thus prevent replication of the host chromosome.
Briefly, the TK mutants were first grown as individual colonies on TK-selection medium (1.0 µg/mL of dT), and then replica plated onto AZT-selection medium (0.05 µg/mL of AZT, 1.0 µg/mL of dT). All other components in the AZT-selection medium were the same as the TK-selection medium.

[3] = system: Rat C6 cells expressing TK mutant 30; assay: Rat C6 kill curves with GCV and ACV; format: cell-based; details: Table VIII
Description: (§1) The seven mutants were subcloned into the mammalian expression vector, pREP8D7:dualGFP. This vector contains a constitutive metallothionin promoter, which drives the expression of green flourescent protein (GFP), and an RSV LTR promoter, which stimulated expression of the TK mutants. The vector also contains a histidinol resistance gene for selection of transformants. Purified vector DNA of these constructs was used to transfect BHK tk- cells by electroporation. The transfectants were selected by resistance to histidinol and sorted using FACS analysis for GFP expression. Pools of transfectants were then assayed for sensitivity to GCV or ACV over a range of prodrug doses. […] Table VIII illustrates the IC50 values from Rat C6 kill curves with the SR11, SR26, and SR39 mutants.

[4] = system: Rat C6 cells expressing TK mutant 411; assay: Rat C6 kill curves with GCV and ACV; format: cell-based; details: Table VIII
Description: as §1

[5] = system: Rat C6 cells expressing TK mutant 75; assay: Rat C6 kill curves with GCV and ACV; format: cell-based; details: Table VIII
Description: as §1

[6] = system: Rat C6 cells expressing TK mutant SR11; assay: Rat C6 kill curves with GCV and ACV; format: cell-based; details: Table VIII
Description: as §1

[7] = system: Rat C6 cells expressing TK mutant SR26; assay: Rat C6 kill curves with GCV and ACV; format: cell-based; details: Table VIII
Description: as §1

[8] = system: Rat C6 cells expressing TK mutant SR39; assay: Rat C6 kill curves with GCV and ACV; format: cell-based; details: Table VIII
Description: as §1

[9] = system: Rat C6 cells expressing wild-type TK; assay: Rat C6 kill curves with GCV and ACV; format: cell-based; details: Table VIII
Description: as §1

Sequence of HSV-1 thymidine kinase mutant TKF 105 (Leu-170 to Ile) (P06478 whole entry L170I): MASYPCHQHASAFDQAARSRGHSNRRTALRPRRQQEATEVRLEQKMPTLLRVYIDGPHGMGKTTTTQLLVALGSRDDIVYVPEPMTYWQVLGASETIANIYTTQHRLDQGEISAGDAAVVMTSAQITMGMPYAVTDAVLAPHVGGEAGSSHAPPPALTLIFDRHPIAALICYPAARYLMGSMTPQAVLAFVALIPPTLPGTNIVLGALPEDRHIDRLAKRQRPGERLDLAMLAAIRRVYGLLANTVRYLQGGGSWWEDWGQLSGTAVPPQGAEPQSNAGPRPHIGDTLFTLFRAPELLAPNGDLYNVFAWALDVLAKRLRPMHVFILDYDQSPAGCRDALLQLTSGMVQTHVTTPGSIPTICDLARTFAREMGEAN

Compound	Km [1] [µM]	colony formation on AZT-selection medium [2]	IC50 [3] [µM]	IC50 [4] [µM]	IC50 [5] [µM]	IC50 [6] [µM]	IC50 [7] [µM]	IC50 [8] [µM]	IC50 [9] [µM]
Cc1cn([C@H]2C[C@H](N=[N+]=[N-])[C@@H](CO)O2)c(=O)[nH]c1=O [AZT, 3' azido-3' thymidine]	3.7	not on the AZT-selection medium	–	–	–	–	–	–	–
Nc1nc2c(ncn2COCCO)c(=O)[nH]1 [acyclovir]	–	–	0.26	14	> 20	6	0.76	0.11	> 20

Source: patent EP1914304A1 (priority 1998, dated 1999)
